Source: BindingDB's records for doi:10.1016/0197-0186(94)90100-7 (Rowett Research Institute, 1994)

The compounds below were run against T1, Melatonin receptor (Oryctolagus cuniculus, UniProt Q9BE38).
T1 sequence (Q9BE38 whole entry): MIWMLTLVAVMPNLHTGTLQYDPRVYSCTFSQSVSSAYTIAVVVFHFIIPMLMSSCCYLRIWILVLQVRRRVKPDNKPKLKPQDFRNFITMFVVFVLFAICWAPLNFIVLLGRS
`COc1ccc2[nH]cc(CCO)c2c1` gave a Ki greater than 10 µM.
In the case of `CC(=O)NCCc1c[nH]c2ccc(O)cc12` [N-Acetyltryptamine,5-Hydroxy], the Ki is reported as 3 µM.
`CC(=O)NCCc1c[nH]c2ccccc12` [N-Acetyltryptamine] gave a Ki of 1.6 µM.
`COc1cc2c(CCNC(C)=O)c[nH]c2cc1O` [melatonin, 6-Hydroxy] gave a Ki of 0.074 µM.
With `COc1cc2[nH]cc(CCNC(C)=O)c2cc1OC` [melatonin, 6-Methoxy] the Ki was 0.46 µM.
